Tests used:
[1] = Air diffusion coefficient of perfume materials; type: physicochemical
[2] = Malodor coverage by individual fragrance materials (Table 1)

Row | Compound | Air Diffusion Coefficient [1] [cm²/s] | Average Coverage ([2]; scale not defined) | Average Coverage ([2]; tested only at 5 and 38 C)
1 | CCc1ccc(CC(C)(C)C=O)cc1 [FLORAZONE] | 0.0499 | 3.6 | 
2 | CC(C)=CCCC(C)C=O (stereo not shown) [MELONAL] | 0.0579 | 2.0 | 
3 | OCCC1CCCCC1 [CYCLOHEXYL ETHANOL] | 0.0629 | 2.0 | 
4 | c1ccc(CCOC2CCCCC2)cc1 | 0.0477 | 2.3 | 
5 | CC(=O)c1cc2c(cc1C)C(C)(C)C(C)CC2(C)C (stereo not shown) [TONALID 10%] |  | 2.0 | 
6 | C=CCc1ccc(OC)cc1 [METHYL CHAVICOL] | 0.0591 | 2.3 | 
7 | CCCCCCCCCCCC#N [CLONAL] | 0.0466 | 3.0 | 
8 | CCCCCCCCCCC=CC#N | 0.0432 | 3.0 | 
9 | C=CCOC(=O)CCCCCC [ALLYL HEPTOATE (C-7), ALLYL HEPTOATE] | 0.0523 | 2.6 | 
10 | CC1=CCC2C3CC(C2C1)C1(C3)OC1C (stereo not shown) [RHUBOFIX] |  | 3.0 | 
11 | CCOC(=O)CC(C)=O [ETHYL ACETOACETATE] | 0.0554 | 1.6 | 
12 | CCCCCC1CCCC1=O (stereo not shown) [DELPHONE, FIRMENICH] | 0.0546 | 4.0 | 
13 | C[C@@H]1CC[C@H]2C(C)(C)[C@H]3C[C@@]12CC[C@@]3(C)O [CEDROL LIQUID 10%, CEDROL] | 0.0425 | 3.3 | 
14 | CO[C@]1(C)CC[C@@]23C[C@@H]1C(C)(C)[C@@H]2CC[C@H]3C [CEDRAMBER] |  | 2.3 | 
15 | O=Cc1ccccc1 [BENZALDEHYDE] | 0.075 |  | 
16 | CC1CCC(C(C)(C)O)CC1 (stereo not shown) [DIHYDRO TERPINEOL] | 0.0547 | 2.0 | 
17 | CC(=O)OC/C=C(\C)CCC=C(C)C [GERANYL ACETATE] | 0.0478 | 1.0 | 
18 | CC(C)CC1CC(C)(O)CCO1 (stereo not shown) [FLOROL] | 0.0521 | 3.0 | 
19 | C=CCOC(=O)CCC1CCCCC1 [ALLYL CYCLOHEXYL PROPIONATE] | 0.0486 | 2.6 | 
20 | CC(C)OCCc1ccccc1 [PETIOLE] |  | 2.6 | 
21 | COc1ccc2ccccc2c1 [NEROLIN YARA YARA 10%] |  | 2.6 | 
22 | CC1CC(C)(c2ccccc2)CO1 (stereo not shown) [RHUBAFURAN] |  | 2.6 | 
23 | CC(C)CCOCCc1ccccc1 [ANTHER] | 0.0486 | 2.6 | 
24 | C=C1C2CCC(C2)C1(C)C (stereo not shown) | 0.0613 |  | 3.0

Now from value to compound, other results behind:

Row | Air Diffusion Coefficient [1] [cm²/s] | Compound | Average Coverage ([2]; scale not defined) | Average Coverage ([2]; tested only at 5 and 38 C)
25 | 0.0445 | CCCCCCC(C=O)=Cc1ccccc1 [HEXYL CINNAMIC ALDEHYDE] | 2.3 | 
26 | 0.0418 | CC(=O)C1(C)CC2=C(CCCC2(C)C)CC1C (stereo not shown) [ISO E SUPER] | 3.3 | 
27 | 0.0545 | CC(C)C1CCC(CO)CC1 (stereo not shown) [MAYOL] | 2.3 | 
28 | 0.0444 | CC/C(=C\CC1CC=C(C)C1(C)C)CO (stereo not shown) [SANDRANOL] | 3.3 | 
29 | 0.047 | CC(C=O)Cc1ccc(C(C)(C)C)cc1 (stereo not shown) [LILIAL] | 2.6 | 
30 | 0.0459 | CCCCCC1(C)CCC(C)(C)C1=O (stereo not shown) [VELOUTONE] | 3.0 | 
31 | 0.0453 | METHYL IONONE GAMMA | 3.3 | 
32 | 0.0533 | CCC(C)(O)CCCC(C)C (stereo not shown) [TETRAHYDRO LINAILOOL] | 2.6 | 
33 | 0.0571 | COC(Cc1ccccc1)OC [PADMA] | 3.3 | 
34 | 0.0649 | CC(=O)OCC=C(C)C [PRENYL ACETATE] | 1.0 | 
35 | 0.0676 | OCCc1ccccc1 [PHENYL ETHYL ALCOHOL] | 4.3 | 
36 | 0.0552 | METHYL NAPTHYL KETONE [METHYL NAPTHYL KETONE 10%] | 2.0 | 
37 | 0.0492 | CC(=O)O[C@@H]1C[C@H]2CC[C@]1(C)C2(C)C (racemic) [ISO BORNYL ACETATE] | 2.6 | 

From patent US20040037799A1, “Malodor suppression by fragrance composition” (priority 2002, published 2004)
